Laboratory results reported in patent publication US20240374677A1, “VARIOUS COMPOUNDS FOR THE TREATMENT OF NEUROFIBROMATOSIS TYPE 1” (PUSAN NATIONAL UNIVERSITY INDUSTRY-UNIVERSITY COOPERATION …, priority 2023, published 2024).

Legend:
NF1 protein [1] = experiment: Western blot of NF1 protein in mouse embryonic fibroblasts (MEF); assay type: cell-based; details: for NF1 protein increasing effect (Western blot): MEF cells, 6 hours, compared to other substances, FIG. 10; for NF1 protein quantification (Western blot) vs control group: MEF
Method: (§1) The effect of increasing NF1 protein in human renal epithelial-like cells (293T), human lung cancer cells (A549), and mouse embryonic fibroblasts (MEF) was analyzed using Western blot. Specifically, the cells incubated in a 10% FBS+DMEM culture medium for 48 hours were treated with 5 μM each of compounds for 6 hours, and then the quantified protein samples were subjected to electrophoresis. After electrophoresis, the proteins in the gel were transferred to a PVDF membrane and then Western blot was performed using NF1 antibody (Abcam, Cat#ab128054).
In addition, the effect of increasing NF1 protein in mouse embryonic fibroblasts (MEF) was analyzed using Western blot. A specific method was as described in Experimental Example 3.
The effect of increasing NF1 protein in mouse embryonic fibroblasts (MEF) was analyzed using Western blot. A specific method was as described in Experimental Example 3.

[2] = test system: A549GR (anticancer resistant) cells; experiment: MTT assay in A549GR cells; assay type: cell-based, human; details: various concentrations, 72 hours, FIG. 11
Method: (§2) Human lung cancer cells A549 and A549GR were treated with PN-NF27, PN-NF28, PN-NF30, PN-NF38, and PN-NF41, respectively, and then the MTT assay results were shown. Specifically, A549 and A549GR (anticancer resistant) cells incubated for 24 hours in a 96 well plate were treated with various concentrations of compounds for 72 hours, respectively, and then added with 10 μl of 3-(4,5-dimethylthiazole-2-yl)-2,5-diphenyltetrazolium bromide (MTT) and after 2 hours, the absorbance was measured at 550 nm.

NF1-GRD1 protein [3] = experiment: Nano-Glo HiBiT lytic assay of NF1-GRD1 protein in stable 293T cells; assay type: cell-based, human; details: FIG. 9; for treatment time at which the maximum effect was shown: 6 hours and 24 hours tested
Method: The cells were treated in the same manner as in Experimental Example 1 except that the treatment time was 6 hours and 24 hours, respectively, and the results of measuring the activity in each case were illustrated in FIG. 9.
The cells were treated in the same manner as in Experimental Example 1, except that the treatment time was 6 hours and 24 hours, respectively, and the concentration of PN-NF27 was 0 μM, 0.25 μM, 0.5 μM, 1.0 μM, and 5.0 μM, and the results of measuring the activity in each case were illustrated in FIG. 8.

[4] = test system: skin cells NF-09, NF-21, and NF-11 of NF1 patients; experiment: MTT assay in skin cells of NF1 patients; assay type: cell-based, human
Method: The cell proliferation inhibitory effect of PN-NF27 was confirmed by an MTT method using skin cells NF-09, NF-21, and NF-11 of NF1 patients. […]
(§3) The cell proliferation inhibitory effect of PN-NF38 was confirmed using skin cells NF-09, NF-21, and NF-11 of NF1 patients. Specifically, skin fibroblasts (passage>8) incubated for 48 hours were treated with PN-NF38 at 0, 0.1, 1, 2.5, 5, and 10 μM for 24 hours, and then added with 3-(4,5-dimethylthiazol-2-yl)-2,5-diphenyltetrazolium bromide (MTT) and reacted for 1 hours, and then the absorbance was measured at 550 nm.
as §3, with “PN-NF41” for “PN-NF38”, “24” for “48”, “5” for “PN-NF38 at 0, 0.1, 1, 2.5, 5, and 10”, “μM of PN-NF41” for “μM”, “72” for “24”

[5] = test system: human lung cancer cells A549; experiment: MTT assay in A549 cells; assay type: cell-based; details: A549, various concentrations, 72 hours, FIG. 11
Method: as §2

NF1-GRD1 protein [6] = experiment: Nano-Glo HiBiT lytic assay of NF1-GRD1 protein in stable 293T cells; assay type: cell-based, human; details: for effect of increasing NF1 protein, times higher than control group: 293T cells stably expressing NF1-GRD1, treated 24 hours, luciferase activity vs DMSO-treated control, FIG. 8; for concentration showing the highest activity: 0-5.0 μM tested
NF1 protein [7] = experiment: Western blot of NF1 protein in 293T cells; assay type: cell-based, human; details: 5 μM, 6 hours, FIG. 10
Method: as §1

NF1 protein [8] = experiment: Western blot of NF1 protein in skin cells of NF1 patients; assay type: cell-based, human; details: 1 μM; normal cells and NF-09, NF-21, NF-11 cells, FIG. 13
Method: as §1
The effect of increasing NF1 protein in skin cells NF-09, NF-21, and NF-11 of NF1 patients was analyzed using Western blot. A specific method was as described in Experimental Example 3.

NF1 protein [9] = experiment: Western blot of NF1 protein in A549 cells; assay type: cell-based, human; details: 5 μM, 6 hours, FIG. 10
Method: as §1

[10] = test system: HCT-8, HCT-15, HCT-116, PANC1, and PC3 cells; experiment: MTT assay in colon, pancreatic and prostate cancer cells; assay type: cell-based, human; details: 0, 0.1, 0.5, 1, 5, 10 μM, 72 hours, FIG. 17
Method: The cell proliferation inhibitory effect of PN-NF30 was confirmed using human colon cancer cells HCT-8, HCT-15, and HCT-116, human pancreatic cancer cells PANC1, and human prostate cancer cells PC3. Specifically, the HCT-8, HCT-15, HCT-116, PANC1, and PC3 cells incubated for 24 hours in a 96 well plate were treated with compounds at concentrations of 0, 0.1, 0.5, 1, 5, and 10 μM for 72 hours, respectively, and then added with 10 μl of 3-(4,5-dimethylthiazole-2-yl)-2,5-diphenyltetrazolium bromide (MTT) and after 1 hours, the absorbance was measured at 550 nm.

Row | Structure (SMILES) | NF1 protein increasing effect (Western blot) (NF1 protein [1]; 5 μM) | NF1 protein quantification (Western blot) vs control group (NF1 protein [1]; 1 μM, FIG. 14) | cell proliferation (MTT) [2] | treatment time at which the maximum effect was shown (NF1-GRD1 protein [3]) [h] | maximum effect compared to the control group (NF1-GRD1 protein [3]; treatment time 6 hours) [fold] | cell proliferation (MTT) treated vs not treated ([4]; 1 μM (result text), 72 hours, normal cells and NF-09, NF-21, NF-11 cells, FIG. 15) | cell proliferation (MTT) [5] | effect of increasing NF1 protein, times higher than control group (NF1-GRD1 protein [6]) | activity compared with the case not treated (0 μM) (NF1-GRD1 protein [6]; PN-NF27 at 0.25, 0.5, 1.0, 5.0 μM, 6 hours and 24 hours, FIG. 12) | concentration showing the highest activity (NF1-GRD1 protein [6]; incubated for 24 hours, FIG. 12) [µM] | concentration showing the highest activity (NF1-GRD1 protein [6]; treated for 6 hours, FIG. 12) [µM] | NF1 protein increasing effect (Western blot) (NF1 protein [7]) | NF1 protein (Western blot) treated vs not treated (NF1 protein [8]) | NF1 protein increasing effect (Western blot) (NF1 protein [9]) | NF1 protein quantification (Western blot) vs control group (NF1 protein [1]; 5 μM, FIG. 16) | cell proliferation (MTT), concentration dependence [10] | NF1 protein quantification (Western blot) vs control group (NF1 protein [1]; 2 μM, FIG. 18) | maximum effect compared to the control group (NF1-GRD1 protein [3]; treatment time 24 hours) [fold] | cell proliferation (MTT), concentration dependence ([4]; 0, 0.1, 1, 2.5, 5, 10 μM, 24 hours, FIG. 19) | cell viability (MTT) ([4]; 10 μM, 24 hours, FIG. 19)
1 | C/C=C(/C)C(=O)O[C@H]1C(C)=C[C@]23C(=O)[C@@H](C=C(COC(C)=O)[C@@H](O)[C@]12O)[C@H]1[C@@H](C[C@H]3C)C1(C)C [PN-NF27, 20-O-acetylingenol-3-angelate] | superior to other substances | tended to increase | effectively inhibited | ≤ 6 | 24 | tended to be inhibited | effectively inhibited | about 6 times | higher activity | 0.5 | 5.0 | excellent | tended to increase | superior to other substances |  |  |  |  |  | 
2 | CN1CCc2cccc3c2[C@H]1Cc1ccc(O)c(O)c1-3.CN1CCc2cccc3c2[C@H]1Cc1ccc(O)c(O)c1-3.Cl.Cl.O [PN-NF30, R(−) Apomorphine hydrochloride hemihydrate, reference compound] |  |  | effectively inhibited |  |  |  | effectively inhibited | about 2 times |  |  |  |  |  | superior to other substances | tended to increase | tended to effectively inhibit cell proliferation as the concentration increased |  |  |  | 
3 | C=C(NC(=O)C(=C)NC(=O)c1csc(C2=N[C@@H]3c4csc(n4)[C@H]4NC(=O)c5csc(n5)[C@H]([C@](C)(O)[C@@H](C)O)NC(=O)[C@H]5CSC(=N5)/C(=C/C)NC(=O)[C@H]([C@@H](C)O)NC(=O)c5csc(n5)[C@]3(CC2)NC(=O)[C@H](C)NC(=O)C(=C)NC(=O)[C@H](C)NC(=O)[C@H]([C@@H](C)CC)N[C@@H]2C=Cc3c([C@H](C)O)cc(nc3[C@H]2O)C(=O)O[C@@H]4C)n1)C(N)=O [PN-NF38, Thiostrepton] | superior to other substances |  | effectively inhibited | 24 |  |  | effectively inhibited | about 20 times |  |  |  |  |  | superior to other substances |  |  | tended to increase | 11 | tended to be effectively inhibited as the concentration of PN-NF38 cells increased | less than 0.3
